Test results taken from publication PMC6270149, “Bioactive Flavone-C-Glycosides of the African Medicinal Plant Biophytum umbraculum” (Molecules, 2013).
Like-named read-outs stand apart in the source and are kept apart here.

How the values were obtained:
DPPH radical scavenging = settings: triplicates, mean ± SD; for IC50: isolated compounds dissolved in DMSO
Method: Pure substances and crude extracts (Soxhlet) were dissolved in DMSO, and the assay was carried out as reported previously. Quercetin (Sigma-Aldrich) was used as positive control.

15-lipoxygenase (15-LO) = biological target: T1, 15-lipoxygenase (15-LO) (Glycine max, UniProt P08170); assay: Inhibition of 15-lipoxygenase (15-LO); type: biochemical; settings: isolated compounds dissolved in DMSO, triplicates, mean ± SD
T1 sequence (P08170 1-839): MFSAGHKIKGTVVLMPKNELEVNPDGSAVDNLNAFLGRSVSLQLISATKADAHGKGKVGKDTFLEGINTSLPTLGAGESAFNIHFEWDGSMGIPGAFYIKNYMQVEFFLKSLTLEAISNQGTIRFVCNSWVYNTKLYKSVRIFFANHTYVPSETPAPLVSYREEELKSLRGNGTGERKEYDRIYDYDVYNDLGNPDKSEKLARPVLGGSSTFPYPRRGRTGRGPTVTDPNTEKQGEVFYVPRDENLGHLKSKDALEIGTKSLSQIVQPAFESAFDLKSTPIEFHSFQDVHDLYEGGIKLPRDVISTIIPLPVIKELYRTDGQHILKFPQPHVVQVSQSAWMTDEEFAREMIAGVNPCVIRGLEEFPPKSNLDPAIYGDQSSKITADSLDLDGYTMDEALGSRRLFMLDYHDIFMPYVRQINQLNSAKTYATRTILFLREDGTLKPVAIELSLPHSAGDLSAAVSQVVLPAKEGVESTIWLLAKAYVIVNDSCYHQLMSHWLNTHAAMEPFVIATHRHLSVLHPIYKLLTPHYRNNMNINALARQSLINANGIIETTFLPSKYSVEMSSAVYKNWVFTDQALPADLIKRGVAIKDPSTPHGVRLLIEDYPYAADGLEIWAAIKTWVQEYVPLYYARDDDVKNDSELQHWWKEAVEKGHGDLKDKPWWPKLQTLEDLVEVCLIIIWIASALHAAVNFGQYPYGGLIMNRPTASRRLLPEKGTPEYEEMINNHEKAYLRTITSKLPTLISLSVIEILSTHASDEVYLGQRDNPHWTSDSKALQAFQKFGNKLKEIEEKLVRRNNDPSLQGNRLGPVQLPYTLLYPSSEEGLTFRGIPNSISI
Method: (§1) Pure substances and crude extracts (Soxhlet) were dissolved in DMSO, and the assay was carried out as reported previously.

xanthine oxidase (XO) = xanthine oxidase (XO) (Bos taurus, UniProt P80457); assay: Inhibition of xanthine oxidase (XO); type: biochemical; settings: isolated compounds dissolved in DMSO; triplicates, mean ± SD
Method: as §1

[1] = read-out: 15-lipoxygenase (15-LO) inhibition IC50 ± SD

Sequence of xanthine oxidase (XO) (P80457 whole entry): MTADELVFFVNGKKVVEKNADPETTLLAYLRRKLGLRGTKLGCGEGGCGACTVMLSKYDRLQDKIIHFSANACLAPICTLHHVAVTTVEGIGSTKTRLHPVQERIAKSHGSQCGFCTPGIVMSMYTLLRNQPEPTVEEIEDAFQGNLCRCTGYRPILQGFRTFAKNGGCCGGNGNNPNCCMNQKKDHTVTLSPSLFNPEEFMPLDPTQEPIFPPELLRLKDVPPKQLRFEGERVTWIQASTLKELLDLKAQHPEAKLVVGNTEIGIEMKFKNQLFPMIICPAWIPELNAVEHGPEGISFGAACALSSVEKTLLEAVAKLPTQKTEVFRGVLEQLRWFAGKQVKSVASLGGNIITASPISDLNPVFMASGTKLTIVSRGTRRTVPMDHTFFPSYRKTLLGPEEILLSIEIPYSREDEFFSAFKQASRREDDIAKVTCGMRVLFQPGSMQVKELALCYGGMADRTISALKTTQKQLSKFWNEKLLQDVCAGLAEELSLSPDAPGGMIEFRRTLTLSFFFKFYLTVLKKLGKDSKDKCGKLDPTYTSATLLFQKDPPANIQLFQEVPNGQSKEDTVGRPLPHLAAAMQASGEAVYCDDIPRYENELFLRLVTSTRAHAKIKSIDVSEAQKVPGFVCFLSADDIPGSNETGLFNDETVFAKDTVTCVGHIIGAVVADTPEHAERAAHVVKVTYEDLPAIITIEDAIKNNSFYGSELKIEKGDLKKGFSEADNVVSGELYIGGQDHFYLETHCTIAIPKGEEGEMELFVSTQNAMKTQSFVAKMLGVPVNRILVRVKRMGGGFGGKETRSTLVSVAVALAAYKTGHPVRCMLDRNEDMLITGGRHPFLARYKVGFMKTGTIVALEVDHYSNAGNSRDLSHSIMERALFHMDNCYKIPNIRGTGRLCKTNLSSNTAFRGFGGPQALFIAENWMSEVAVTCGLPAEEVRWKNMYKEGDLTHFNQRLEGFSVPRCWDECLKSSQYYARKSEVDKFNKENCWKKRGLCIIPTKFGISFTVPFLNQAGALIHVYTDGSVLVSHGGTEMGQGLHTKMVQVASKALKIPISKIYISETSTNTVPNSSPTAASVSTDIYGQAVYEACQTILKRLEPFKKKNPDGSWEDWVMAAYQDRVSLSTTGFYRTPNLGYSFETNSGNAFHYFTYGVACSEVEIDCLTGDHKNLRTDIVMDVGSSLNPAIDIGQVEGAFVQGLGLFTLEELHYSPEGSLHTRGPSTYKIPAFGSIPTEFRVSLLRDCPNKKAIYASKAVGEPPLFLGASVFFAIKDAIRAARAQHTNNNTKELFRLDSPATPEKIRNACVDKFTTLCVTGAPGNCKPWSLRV

DPPH radical scavenging IC50 ± SD (DPPH radical scavenging; extracts (Soxhlet) dissolved in DMSO)	Compound	IC50 (DPPH radical scavenging)	IC50 (15-lipoxygenase (15-LO); 15-lipoxygenase (15-LO) inhibition IC50 ± SD)	IC50 (xanthine oxidase (XO))	IC50 (15-lipoxygenase (15-LO); [1])
–	O=c1cc(-c2ccc(O)c(O)c2)oc2cc(O)c([C@@H]3O[C@H](CO)[C@@H](O)[C@H](O)[C@H]3O)c(O)c12 [Isoorientin (3), isoorientin]	18.1 ± 1.1 µM	86.4 ± 0.5 µM	117 ± 13.5 µM	–
4.4 ± 0.4 µg/mL	O=c1c(O)c(-c2ccc(O)c(O)c2)oc2cc(O)cc(O)c12 [Quercetin, reference compound]	13.7 ± 1.3 µM	–	–	–
–	C[C@@H]1O[C@@H](O[C@H]2C(=O)[C@@H](O)[C@H](C)O[C@@H]2c2c(O)cc3oc(-c4ccc(O)cc4)cc(=O)c3c2O)[C@H](O)[C@H](O)[C@H]1O [Cassiaoccidentalin A (1), cassiaoccidentalin A]	> 167 µM	–	150 ± 7.4 µM	99.9 ± 2.5 µM
–	O=c1cc(-c2ccc(O)cc2)oc2cc(O)c([C@@H]3O[C@H](CO)[C@@H](O)[C@H](O)[C@H]3O)c(O)c12 [Isovitexin (2), isovitexin]	96 ± 3.6 µM	–	> 167 µM	107 ± 2.1 µM
